Data as given in patent publication US20240158369A1, “PYRIMIDINE COMPOUND AS WEE-1 INHIBITOR” (WIGEN BIOMEDICINE TECHNOLOGY (SHANGHAI) CO., LTD., priority 2021, published 2024).

How the values were obtained:
[1] = molecular target: recombinant protein Wee-1 (Homo sapiens (Human), UniProt P30291); assay: HTRF assay for inhibiting enzymatic activity of recombinant protein Wee-1; format: biochemical; settings: compounds up to 200 nM, read-out: (IC50) Inhibitory activity against recombinant protein Wee-1
Sequence of recombinant protein Wee-1 (P30291 whole entry): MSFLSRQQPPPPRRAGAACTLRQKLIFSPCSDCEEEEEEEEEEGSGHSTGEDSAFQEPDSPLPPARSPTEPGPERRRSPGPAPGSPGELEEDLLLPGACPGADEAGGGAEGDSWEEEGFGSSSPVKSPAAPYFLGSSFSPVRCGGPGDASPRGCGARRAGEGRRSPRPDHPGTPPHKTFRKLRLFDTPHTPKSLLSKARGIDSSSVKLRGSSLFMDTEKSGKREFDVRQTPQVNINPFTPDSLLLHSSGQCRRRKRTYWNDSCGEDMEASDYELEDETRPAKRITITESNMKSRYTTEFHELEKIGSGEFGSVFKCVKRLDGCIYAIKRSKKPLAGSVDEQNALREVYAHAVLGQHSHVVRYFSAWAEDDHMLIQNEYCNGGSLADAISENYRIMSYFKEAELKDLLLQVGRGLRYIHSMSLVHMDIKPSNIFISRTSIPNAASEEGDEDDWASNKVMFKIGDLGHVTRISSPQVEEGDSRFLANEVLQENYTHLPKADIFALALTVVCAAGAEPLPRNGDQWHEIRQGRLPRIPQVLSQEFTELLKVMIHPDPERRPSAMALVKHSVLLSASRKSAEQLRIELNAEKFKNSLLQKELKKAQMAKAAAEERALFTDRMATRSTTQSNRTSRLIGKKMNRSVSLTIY
Summary of the method: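 Compound (up to 200 nM, 1:5 series) preincubated with Wee-1 in kinase buffer 30 min at 37° C; Fluorescein-PolyGAT and ATP then added, reaction run 90 min at room temperature. Antibody detection 60 min; 520/495 nm ratio versus DMSO gave % inhibition and IC50.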

[2] = test system: MIA PaCa-2 cells; assay: In-vitro anti-proliferative activity in combination with gemcitabine on MIA PaCa-2 cells; format: cell-based; settings: 72 h
[3] = test system: MIA PaCa-2 cells; assay: In-vitro anti-proliferative activity on MIA PaCa-2 cells (intracellular ATP content, 72 h); format: cell-based; settings: Homo sapiens, compound alone, read-out: IC50 (nM) antiproliferative activity against MIA PaCa-2 cells
Experimental: MIA PaCa-2 cells were seeded on a 384-well plate at 3000 cells/well. After overnight adherence culture, DMSO or the compounds serially 1:5-diluted from 5 μM were added. The viability was assessed 72 h after dosing by measuring the intracellular ATP content. The inhibition percentage of viable cells by the compounds was calculated by comparing with the DMSO group, and the IC50 value was calculated.

[4] = test system: HT29 subcutaneous xenograft tumor; assay: Mouse HT29 subcutaneous xenograft tumor model (Example 164), alone or with 15 mg/kg gemcitabine; format: in vivo
Experimental: (§1) HT29 is a colon cancer cell. Each nude mouse was grafted subcutaneously with 5×10^6HT29 cells. When the tumor grew to 100-200 mm^3, the compound was administered orally once a day alone or in combination with 15 mg/kg of gemcitabine injected intraperitoneally once a week, and the tumor volume was measured twice a week and at the end of treatment. Tumor growth inhibition of the compound was calculated according to the following equation: tumor growth inhibition (TGI)=1−(tumor volume on day 20 in treatment group−tumor volume on day 1 in treatment group)/(tumor volume on day 20 in vehicle control group−tumor volume on day 1 in treatment group).

[5] = test system: HT29 subcutaneous xenograft tumor; assay: Mouse HT29 subcutaneous xenograft tumor model (Example 165), with 30 mg/kg gemcitabine; format: in vivo
Experimental: as §1, with “day” for “day alone or”, “30” for “15”

[6] = with 20 nM gemcitabine, read-out: in combination with 20 nM GMC IC50
[7] = with 200 nM gemcitabine, read-out: in combination with 200 nM GMC IC50
[8] = 30 mg/kg orally once a day in combination with 15 mg/kg of gemcitabine ip once a week, day 1
[9] = 30 mg/kg orally once a day in combination with 15 mg/kg of gemcitabine ip once a week, day 20
[10] = monotherapy, 30 mg/kg orally once a day, nude mouse HT29, day 1
[11] = monotherapy, 30 mg/kg orally once a day, nude mouse HT29, day 20
[12] = 30 mg/kg orally once a day in combination with 30 mg/kg of gemcitabine ip once a week
[13] = 30 mg/kg orally once a day in combination with 30 mg/kg of gemcitabine ip once a week, day 20
[14] = gemcitabine alone 15 mg/kg intraperitoneally once a week, day 20

Compound | IC50 [1] [nM] | IC50 [2, 6] [nM] | Tumor volume on day 20 of treatment (mm^3) [5, 12] [mm^3] | TGI [5, 13] [%] | also measured
CN1CCc2ccc(Nc3ncc(P(C)(C)=O)c(Nc4cccc(N=S(C)(C)=O)n4)n3)cc2C1 [Compound 4] | > 50 | > 100 | – | – | IC50 [3]: > 5000 nM
CCc1cc(Nc2ncc(C#N)c(Nc3cccc(N=S(C)(C)=O)n3)n2)cc2c1CCN(C)C2 [Compound 13] | ≤ 10 | – | – | – | IC50 [2, 7]: 1 nM; Tumor volume on day 1 of treatment (mm^3) [4, 8]: 102 mm^3; TGI [4, 9]: 109%; Tumor volume on day 20 of treatment (mm^3) [4, 9]: 14 mm^3; Tumor volume on day 1 of treatment (mm^3) [4, 10]: 102 mm^3; TGI [4, 11]: 97%; Tumor volume on day 20 of treatment (mm^3) [4, 11]: 129 mm^3
COCCCc1cc(Nc2ncc(C#N)c(Nc3cccc(N=S(C)(C)=O)n3)n2)cc2c1CCN(C)C2 [Compound 128] | ≤ 10 | 2.5 | 284 | 87 | –
CN1CCc2c(cc(Nc3ncc(C#N)c(Nc4cccc(N=S(C)(C)=O)n4)n3)cc2C2CCOCC2)C1 [Compound 117] | ≤ 10 | 1.5 | 283 | 87 | –
CN1CCc2c(cc(Nc3ncc(C#N)c(Nc4cccc(N=S(C)(C)=O)n4)n3)cc2C2CC2)C1 [Compound 16] | ≤ 10 | – | – | – | IC50 [2, 7]: 1 nM; Tumor volume on day 1 of treatment (mm^3) [4, 8]: 102 mm^3; TGI [4, 9]: 104%; Tumor volume on day 20 of treatment (mm^3) [4, 9]: 58 mm^3; Tumor volume on day 1 of treatment (mm^3) [4, 10]: 102 mm^3; TGI [4, 11]: 79%; Tumor volume on day 20 of treatment (mm^3) [4, 11]: 307 mm^3
CN1CCc2c(cc(Nc3ncc(C#N)c(Nc4cccc(N=S(C)(C)=O)n4)n3)cc2C2CCC2)C1 [Compound 97] | ≤ 10 | 1.6 | 278 | 88 | –
CN1CCc2ccc(Nc3ncc(C(F)(F)F)c(Nc4cccc(N=S(C)(C)=O)n4)n3)cc2C1 [Compound 2] | > 50 | 30 | – | – | IC50 [3]: 398 nM
CC(C)c1cc(Nc2ncc(C#N)c(Nc3cccc(N=S(C)(C)=O)n3)n2)cc2c1CCN(C)C2 [Compound 14] | ≤ 10 | 1 | 38 | 106 | –
CCN1CCc2c(cc(Nc3ncc(C#N)c(Nc4cccc(N=S(C)(C)=O)n4)n3)cc2C2CC2)C1 [Compound 137] | ≤ 10 | 3.3 | – | – | Tumor volume on day 1 of treatment (mm^3) [4, 8]: 102 mm^3; TGI [4, 9]: 100%; Tumor volume on day 20 of treatment (mm^3) [4, 9]: 97 mm^3; Tumor volume on day 1 of treatment (mm^3) [4, 10]: 102 mm^3; TGI [4, 11]: 51%; Tumor volume on day 20 of treatment (mm^3) [4, 11]: 573 mm^3
Nc1ccn([C@@H]2O[C@H](CO)[C@@H](O)C2(F)F)c(=O)n1 [Gemcitabine, gemcitabine, reference compound] | – | – | – | – | Tumor volume on day 1 of treatment (mm^3) ([4]; gemcitabine alone 15 mg/kg intraperitoneally once a week, day 1): 102 mm^3; TGI [4, 14]: 54%; Tumor volume on day 20 of treatment (mm^3) [4, 14]: 550 mm^3; inhibition in vivo at 30 mg/kg ([5]; Mus musculus, HT-29, ip, 480 h, gemcitabine alone 30 mg/kg intraperitoneally once a week, day 20, read-out: TGI): 60%; Tumor volume on day 20 of treatment (mm^3) ([5]; gemcitabine alone 30 mg/kg intraperitoneally once a week): 653 mm^3
CN1CCc2ccc(Nc3ncc(C#N)c(Nc4cccc(N=S(C)(C)=O)n4)n3)cc2C1 [Compound 1] | ≤ 10 | 4.6 | – | – | IC50 [3]: 735 nM
CC(C)Cc1cc(Nc2ncc(C#N)c(Nc3cccc(N=S(C)(C)=O)n3)n2)cc2c1CCN(C)C2 [Compound 87] | – | 1.8 | 395 | 79 | –
CN1CCc2c(cc(Nc3ncc(C#N)c(Nc4cccc(N=S(C)(C)=O)n4)n3)cc2C2CCCC2)C1 [Compound 18] | ≤ 10 | 2.1 | 218 | 92 | –
CN1CCc2ccc(Nc3ncc(C4CC4)c(Nc4cccc(N=S(C)(C)=O)n4)n3)cc2C1 [Compound 3] | > 50 | – | – | – | IC50 [2, 7]: > 100 nM; IC50 [3]: 879 nM
CN1CCc2c(cc(Nc3ncc(C#N)c(Nc4cccc(N=S(C)(C)=O)n4)n3)cc2C2(C)CC2)C1 [Compound 101] | ≤ 10 | 4.4 | 95 | 102 | –
